Biological target: Growth factor receptor-bound protein 2 (Homo sapiens, UniProt P62993)
Test: Inhibitory concentration against Growth factor receptor bound protein 2 in MDA-MB-453 cells
Format: cell-based

IC50 [µM] | Compound
2.5 | NC(Cc1ccc(OCC(=O)O)cc1)C(=O)O (stereo not given)
65 | NC(Cc1ccc(CC(=O)O)cc1)C(=O)O (stereo not given)
28 | NC(Cc1ccc(C(F)(F)C(=O)O)cc1)C(=O)O (stereo not given)
2 | NC(=O)C[C@H](NC(=O)C1(NC(=O)[C@@H](Cc2ccc(C(F)(F)C(=O)O)cc2)NC(=O)C(=O)O)CCCCC1)C(=O)NCCCc1cccc2ccccc12
0.6 | NC(=O)C[C@H](NC(=O)C1(NC(=O)[C@@H](Cc2ccc(CC(=O)O)cc2)NC(=O)C(=O)O)CCCCC1)C(=O)NCCCc1cccc2ccccc12
0.007 | CC(=O)N[C@H](Cc1ccc(OP(=O)(O)O)cc1)C(=O)NC1(C(=O)N[C@@H](CC(N)=O)C(=O)NCCCc2cccc3ccccc23)CCCCC1
28 | CC(=O)N[C@H](Cc1ccc(C(F)(F)C(=O)O)cc1)C(=O)NC1(C(=O)N[C@@H](CC(N)=O)C(=O)NCCCc2cccc3ccccc23)CCCCC1
65 | CC(=O)N[C@H](Cc1ccc(OCC(=O)O)cc1)C(=O)NC1(C(=O)N[C@@H](CC(N)=O)C(=O)NCCCc2cccc3ccccc23)CCCCC1
15 | NC(=O)C[C@H](NC(=O)C1(NC(=O)[C@@H](Cc2ccc(OCC(=O)O)cc2)NC(=O)C(=O)O)CCCCC1)C(=O)NCCCc1cccc2ccccc12
2.5 | CC(=O)N[C@H](Cc1ccc(CC(=O)O)cc1)C(=O)NC1(C(=O)N[C@@H](CC(N)=O)C(=O)NCCCc2cccc3ccccc23)CCCCC1
